Experiment [1] deals with Cyclin-dependent kinase 4 (Homo sapiens) (UniProt P11802). The following applies: Compound concentration 1000.0 nM.
Experiment [2] deals with Mitogen-activated protein kinase 9 (Homo sapiens) (UniProt P45984). The note with it: Compound concentration 1000.0 nM.
Experiment [3] deals with Histamine H4 receptor (Homo sapiens) (UniProt Q9H3N8). The note with it: Compound concentration 10.0 uM.
In experiment [4] the target is cAMP-dependent protein kinase catalytic subunit alpha (Homo sapiens) (UniProt P17612). The following applies: Compound concentration 1000.0 nM.
The target in experiment [5] is Mitogen-activated protein kinase kinase kinase 10 (Homo sapiens) (UniProt Q02779). The following applies: Compound concentration 1000.0 nM.
Experiment [6] has as its target Insulin-like growth factor 1 receptor (Homo sapiens) (UniProt P08069). The following applies: Compound concentration 1000.0 nM.
The target in experiment [7] is Serine/threonine-protein kinase PAK 6 (Homo sapiens) (UniProt Q9NQU5). The note with it: Compound concentration 1000.0 nM.
Experiment [8] deals with Hormonally up-regulated neu tumor-associated kinase (Homo sapiens) (UniProt P57058). The following applies: Compound concentration 1000.0 nM.
The target of experiment [9] is Mitogen-activated protein kinase 6 (Homo sapiens) (UniProt Q16659). The following applies: Compound concentration 1000.0 nM.
Experiment [10] deals with Mitogen-activated protein kinase kinase kinase kinase 5 (Homo sapiens) (UniProt Q9Y4K4). The following applies: Compound concentration 1000.0 nM.
Experiment [11] deals with Receptor-type tyrosine-protein kinase FLT3 (Homo sapiens), P36888 [D835H]. The following applies: Compound concentration 1000.0 nM.
Experiment [12] addresses Serine/threonine-protein kinase PLK4 (Homo sapiens) (UniProt O00444). The following applies: Compound concentration 1000.0 nM.
Experiment [13] deals with T1, Aurora kinase A (Homo sapiens) (UniProt O14965).
T1 sequence (whole entry): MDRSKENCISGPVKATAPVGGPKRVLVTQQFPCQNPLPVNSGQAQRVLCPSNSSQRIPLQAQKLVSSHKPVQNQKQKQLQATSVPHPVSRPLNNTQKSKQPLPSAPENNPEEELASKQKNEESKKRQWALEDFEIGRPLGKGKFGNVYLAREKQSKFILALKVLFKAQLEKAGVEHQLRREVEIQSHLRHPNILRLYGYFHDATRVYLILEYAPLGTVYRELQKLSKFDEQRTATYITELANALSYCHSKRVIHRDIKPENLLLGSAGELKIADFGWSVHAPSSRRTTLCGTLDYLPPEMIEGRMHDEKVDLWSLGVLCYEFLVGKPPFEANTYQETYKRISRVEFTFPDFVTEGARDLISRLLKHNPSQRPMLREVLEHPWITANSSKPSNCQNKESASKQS
The note with it: Compound concentration 1000.0 nM.

Experiment [14] has as its target T2, Tyrosine-protein kinase Tec (Homo sapiens) (UniProt P42680).
T2 sequence (whole entry): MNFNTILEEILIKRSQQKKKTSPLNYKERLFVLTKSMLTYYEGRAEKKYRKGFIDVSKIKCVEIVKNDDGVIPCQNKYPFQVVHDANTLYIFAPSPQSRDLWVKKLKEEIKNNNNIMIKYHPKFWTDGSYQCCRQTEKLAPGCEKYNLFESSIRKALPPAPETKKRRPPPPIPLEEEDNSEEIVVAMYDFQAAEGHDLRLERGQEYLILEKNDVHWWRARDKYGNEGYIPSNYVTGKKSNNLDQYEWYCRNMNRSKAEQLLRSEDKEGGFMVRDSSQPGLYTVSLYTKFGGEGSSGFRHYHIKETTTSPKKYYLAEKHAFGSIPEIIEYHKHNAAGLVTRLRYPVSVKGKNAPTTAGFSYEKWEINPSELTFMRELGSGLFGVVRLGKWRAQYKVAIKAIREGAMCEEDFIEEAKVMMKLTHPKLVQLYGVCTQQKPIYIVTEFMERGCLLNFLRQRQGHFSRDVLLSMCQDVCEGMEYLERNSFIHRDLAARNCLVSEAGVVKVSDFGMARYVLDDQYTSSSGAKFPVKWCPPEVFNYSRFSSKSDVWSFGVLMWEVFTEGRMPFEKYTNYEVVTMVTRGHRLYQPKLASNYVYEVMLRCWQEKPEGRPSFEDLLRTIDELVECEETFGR
The following applies: Compound concentration 1000.0 nM.

The target in experiment [15] is Tyrosine-protein kinase HCK (Homo sapiens) (UniProt P08631). The note with it: Compound concentration 1000.0 nM.
Experiment [16] relates to Phosphatidylinositol 4,5-bisphosphate 3-kinase catalytic subunit alpha isoform (Homo sapiens), P42336 [E545K]. The note with it: Compound concentration 1000.0 nM.
In experiment [17] the target is Serine/threonine-protein kinase pim-3 (Homo sapiens) (UniProt Q86V86). The following applies: Compound concentration 1000.0 nM.
The target of experiment [18] is Phosphatidylinositol 5-phosphate 4-kinase type-2 gamma (Homo sapiens) (UniProt Q8TBX8). The note with it: Compound concentration 1000.0 nM.
The target in experiment [19] is T3, cGMP-dependent protein kinase 2 (Homo sapiens) (UniProt Q13237).
T3 sequence (whole entry): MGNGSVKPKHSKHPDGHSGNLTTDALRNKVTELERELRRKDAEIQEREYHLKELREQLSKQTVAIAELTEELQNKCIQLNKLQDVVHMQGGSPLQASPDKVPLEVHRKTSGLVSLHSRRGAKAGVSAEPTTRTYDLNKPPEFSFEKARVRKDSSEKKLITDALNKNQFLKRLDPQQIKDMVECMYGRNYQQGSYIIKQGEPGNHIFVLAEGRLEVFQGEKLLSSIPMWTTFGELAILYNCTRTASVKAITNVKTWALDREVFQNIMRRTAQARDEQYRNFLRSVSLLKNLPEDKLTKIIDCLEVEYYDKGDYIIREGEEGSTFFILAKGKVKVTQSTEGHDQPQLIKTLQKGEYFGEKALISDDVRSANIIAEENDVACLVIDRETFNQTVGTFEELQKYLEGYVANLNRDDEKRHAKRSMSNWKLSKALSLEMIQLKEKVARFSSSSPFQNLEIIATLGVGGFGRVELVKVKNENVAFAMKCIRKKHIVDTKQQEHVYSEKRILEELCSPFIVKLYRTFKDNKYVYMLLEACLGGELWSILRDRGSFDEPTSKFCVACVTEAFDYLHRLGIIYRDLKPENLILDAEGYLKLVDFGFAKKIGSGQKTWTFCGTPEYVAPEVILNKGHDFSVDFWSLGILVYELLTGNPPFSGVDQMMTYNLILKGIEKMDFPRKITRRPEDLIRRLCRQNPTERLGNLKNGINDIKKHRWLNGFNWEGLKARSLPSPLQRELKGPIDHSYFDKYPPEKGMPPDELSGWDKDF
The note with it: Compound concentration 1000.0 nM.

The target of experiment [20] is Non-receptor tyrosine-protein kinase TYK2 (Homo sapiens) (UniProt P29597). The note with it: Compound concentration 1000.0 nM.
The target in experiment [21] is Dual specificity mitogen-activated protein kinase kinase 1 (Homo sapiens) (UniProt Q02750). The note with it: Compound concentration 1000.0 nM.

Chain of Serine/threonine-protein kinase PAK 6 (Homo sapiens) (Q9NQU5 whole entry, looked up): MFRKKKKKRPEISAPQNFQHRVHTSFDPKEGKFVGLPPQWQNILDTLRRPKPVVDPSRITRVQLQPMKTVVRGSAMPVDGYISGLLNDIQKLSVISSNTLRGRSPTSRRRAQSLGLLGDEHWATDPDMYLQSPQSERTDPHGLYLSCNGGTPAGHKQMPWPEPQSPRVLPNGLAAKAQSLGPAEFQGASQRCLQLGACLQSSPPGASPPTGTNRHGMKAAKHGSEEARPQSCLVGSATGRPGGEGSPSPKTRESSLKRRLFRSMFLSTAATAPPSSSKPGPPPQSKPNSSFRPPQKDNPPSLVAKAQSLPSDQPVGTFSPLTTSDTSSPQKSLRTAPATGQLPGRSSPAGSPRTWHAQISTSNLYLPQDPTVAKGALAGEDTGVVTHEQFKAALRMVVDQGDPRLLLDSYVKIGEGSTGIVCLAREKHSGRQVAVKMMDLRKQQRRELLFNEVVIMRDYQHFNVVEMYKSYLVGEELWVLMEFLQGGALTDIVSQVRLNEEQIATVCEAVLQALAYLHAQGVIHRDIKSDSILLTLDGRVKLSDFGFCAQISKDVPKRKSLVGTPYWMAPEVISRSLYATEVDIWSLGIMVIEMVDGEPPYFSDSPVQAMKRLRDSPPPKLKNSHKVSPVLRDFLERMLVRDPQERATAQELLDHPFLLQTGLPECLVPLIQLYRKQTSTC
Chain of Hormonally up-regulated neu tumor-associated kinase (Homo sapiens) (P57058 whole entry): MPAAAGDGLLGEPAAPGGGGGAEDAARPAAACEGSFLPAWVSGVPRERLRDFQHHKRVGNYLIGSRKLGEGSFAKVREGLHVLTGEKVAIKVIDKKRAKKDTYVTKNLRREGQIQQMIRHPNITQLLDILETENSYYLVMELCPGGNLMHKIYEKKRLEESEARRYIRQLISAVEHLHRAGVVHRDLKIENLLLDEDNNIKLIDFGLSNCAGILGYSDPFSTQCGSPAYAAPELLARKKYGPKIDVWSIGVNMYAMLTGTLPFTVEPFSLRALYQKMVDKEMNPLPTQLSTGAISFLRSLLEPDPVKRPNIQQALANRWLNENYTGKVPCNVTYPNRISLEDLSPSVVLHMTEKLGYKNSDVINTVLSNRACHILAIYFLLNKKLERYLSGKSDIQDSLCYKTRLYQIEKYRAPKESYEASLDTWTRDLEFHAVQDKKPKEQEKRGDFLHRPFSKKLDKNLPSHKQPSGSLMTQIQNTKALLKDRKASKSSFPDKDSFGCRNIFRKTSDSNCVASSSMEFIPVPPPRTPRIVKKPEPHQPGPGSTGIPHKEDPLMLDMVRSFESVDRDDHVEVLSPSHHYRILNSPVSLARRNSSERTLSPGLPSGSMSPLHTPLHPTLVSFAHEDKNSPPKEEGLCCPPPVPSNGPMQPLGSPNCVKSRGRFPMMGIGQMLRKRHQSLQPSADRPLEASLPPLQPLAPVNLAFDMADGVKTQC
Chain of Cyclin-dependent kinase 4 (Homo sapiens) (P11802 whole entry): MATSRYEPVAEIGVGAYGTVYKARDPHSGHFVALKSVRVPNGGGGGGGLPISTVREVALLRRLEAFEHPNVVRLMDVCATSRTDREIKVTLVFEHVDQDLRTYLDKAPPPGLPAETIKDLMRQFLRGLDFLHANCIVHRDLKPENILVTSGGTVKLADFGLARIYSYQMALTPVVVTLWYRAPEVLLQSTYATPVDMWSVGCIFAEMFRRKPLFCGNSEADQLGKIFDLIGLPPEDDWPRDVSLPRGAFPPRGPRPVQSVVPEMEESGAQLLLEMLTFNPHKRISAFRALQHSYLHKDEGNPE
Chain of Mitogen-activated protein kinase 9 (Homo sapiens) (P45984 whole entry, looked up): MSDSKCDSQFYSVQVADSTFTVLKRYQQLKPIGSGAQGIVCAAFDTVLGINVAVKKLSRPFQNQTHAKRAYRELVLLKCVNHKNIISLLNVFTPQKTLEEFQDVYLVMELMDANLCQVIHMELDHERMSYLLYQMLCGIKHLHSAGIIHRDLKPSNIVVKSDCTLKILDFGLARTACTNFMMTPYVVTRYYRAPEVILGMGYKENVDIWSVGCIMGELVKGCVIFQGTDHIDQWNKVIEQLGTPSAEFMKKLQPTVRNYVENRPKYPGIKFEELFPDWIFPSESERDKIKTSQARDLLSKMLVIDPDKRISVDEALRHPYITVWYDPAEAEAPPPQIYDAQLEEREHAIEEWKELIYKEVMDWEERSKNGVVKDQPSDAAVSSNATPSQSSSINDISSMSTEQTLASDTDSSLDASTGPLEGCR
Chain of Mitogen-activated protein kinase 6 (Homo sapiens) (Q16659 whole entry): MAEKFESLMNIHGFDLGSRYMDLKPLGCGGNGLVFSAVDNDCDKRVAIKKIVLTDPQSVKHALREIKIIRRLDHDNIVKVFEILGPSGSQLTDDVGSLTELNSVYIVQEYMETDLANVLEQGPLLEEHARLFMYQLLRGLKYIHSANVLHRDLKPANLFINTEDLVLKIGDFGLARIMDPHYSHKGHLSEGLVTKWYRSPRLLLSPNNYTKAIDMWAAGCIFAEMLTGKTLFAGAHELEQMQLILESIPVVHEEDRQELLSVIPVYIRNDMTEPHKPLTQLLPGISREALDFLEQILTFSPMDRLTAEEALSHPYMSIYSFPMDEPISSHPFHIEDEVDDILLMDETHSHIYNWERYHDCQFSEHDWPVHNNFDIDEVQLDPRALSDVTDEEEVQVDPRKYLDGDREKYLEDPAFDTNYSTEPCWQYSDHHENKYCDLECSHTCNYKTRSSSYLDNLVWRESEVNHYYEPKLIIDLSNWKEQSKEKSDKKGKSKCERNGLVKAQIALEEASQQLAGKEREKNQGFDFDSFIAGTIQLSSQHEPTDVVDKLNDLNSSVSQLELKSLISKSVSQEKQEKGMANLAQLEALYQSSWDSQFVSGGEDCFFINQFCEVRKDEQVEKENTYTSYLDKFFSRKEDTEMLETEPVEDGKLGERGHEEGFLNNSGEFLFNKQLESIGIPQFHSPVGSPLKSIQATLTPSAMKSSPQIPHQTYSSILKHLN
Chain of Mitogen-activated protein kinase kinase kinase 10 (Homo sapiens) (Q02779 whole entry, looked up): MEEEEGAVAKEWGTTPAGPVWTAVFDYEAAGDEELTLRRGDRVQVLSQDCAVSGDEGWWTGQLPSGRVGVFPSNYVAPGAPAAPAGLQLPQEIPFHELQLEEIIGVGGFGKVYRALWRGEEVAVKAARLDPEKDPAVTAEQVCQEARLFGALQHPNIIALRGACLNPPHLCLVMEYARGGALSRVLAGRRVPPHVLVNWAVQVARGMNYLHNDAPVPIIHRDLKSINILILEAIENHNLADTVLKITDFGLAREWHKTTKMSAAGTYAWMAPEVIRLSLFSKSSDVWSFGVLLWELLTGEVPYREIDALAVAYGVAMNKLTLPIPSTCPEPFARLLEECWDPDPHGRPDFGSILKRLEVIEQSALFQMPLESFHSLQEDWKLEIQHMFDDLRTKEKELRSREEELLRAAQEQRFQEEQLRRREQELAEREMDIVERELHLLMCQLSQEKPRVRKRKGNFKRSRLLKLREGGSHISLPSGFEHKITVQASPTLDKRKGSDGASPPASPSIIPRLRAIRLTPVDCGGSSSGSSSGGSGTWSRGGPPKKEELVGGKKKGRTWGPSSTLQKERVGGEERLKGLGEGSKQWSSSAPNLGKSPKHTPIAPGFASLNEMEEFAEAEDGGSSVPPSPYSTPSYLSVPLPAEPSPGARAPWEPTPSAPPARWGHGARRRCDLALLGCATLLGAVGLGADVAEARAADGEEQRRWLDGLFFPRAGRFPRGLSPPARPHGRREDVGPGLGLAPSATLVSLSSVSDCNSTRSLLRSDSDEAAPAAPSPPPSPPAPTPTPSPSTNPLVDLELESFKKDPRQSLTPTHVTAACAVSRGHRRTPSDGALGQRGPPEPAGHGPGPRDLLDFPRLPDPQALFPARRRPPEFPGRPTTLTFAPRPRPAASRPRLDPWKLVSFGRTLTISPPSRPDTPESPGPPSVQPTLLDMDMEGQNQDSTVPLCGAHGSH
Chain of Phosphatidylinositol 4,5-bisphosphate 3-kinase catalytic subunit alpha isoform (Homo sapiens), P42336 [E545K] (P42336 whole entry E545K, canonical isoform): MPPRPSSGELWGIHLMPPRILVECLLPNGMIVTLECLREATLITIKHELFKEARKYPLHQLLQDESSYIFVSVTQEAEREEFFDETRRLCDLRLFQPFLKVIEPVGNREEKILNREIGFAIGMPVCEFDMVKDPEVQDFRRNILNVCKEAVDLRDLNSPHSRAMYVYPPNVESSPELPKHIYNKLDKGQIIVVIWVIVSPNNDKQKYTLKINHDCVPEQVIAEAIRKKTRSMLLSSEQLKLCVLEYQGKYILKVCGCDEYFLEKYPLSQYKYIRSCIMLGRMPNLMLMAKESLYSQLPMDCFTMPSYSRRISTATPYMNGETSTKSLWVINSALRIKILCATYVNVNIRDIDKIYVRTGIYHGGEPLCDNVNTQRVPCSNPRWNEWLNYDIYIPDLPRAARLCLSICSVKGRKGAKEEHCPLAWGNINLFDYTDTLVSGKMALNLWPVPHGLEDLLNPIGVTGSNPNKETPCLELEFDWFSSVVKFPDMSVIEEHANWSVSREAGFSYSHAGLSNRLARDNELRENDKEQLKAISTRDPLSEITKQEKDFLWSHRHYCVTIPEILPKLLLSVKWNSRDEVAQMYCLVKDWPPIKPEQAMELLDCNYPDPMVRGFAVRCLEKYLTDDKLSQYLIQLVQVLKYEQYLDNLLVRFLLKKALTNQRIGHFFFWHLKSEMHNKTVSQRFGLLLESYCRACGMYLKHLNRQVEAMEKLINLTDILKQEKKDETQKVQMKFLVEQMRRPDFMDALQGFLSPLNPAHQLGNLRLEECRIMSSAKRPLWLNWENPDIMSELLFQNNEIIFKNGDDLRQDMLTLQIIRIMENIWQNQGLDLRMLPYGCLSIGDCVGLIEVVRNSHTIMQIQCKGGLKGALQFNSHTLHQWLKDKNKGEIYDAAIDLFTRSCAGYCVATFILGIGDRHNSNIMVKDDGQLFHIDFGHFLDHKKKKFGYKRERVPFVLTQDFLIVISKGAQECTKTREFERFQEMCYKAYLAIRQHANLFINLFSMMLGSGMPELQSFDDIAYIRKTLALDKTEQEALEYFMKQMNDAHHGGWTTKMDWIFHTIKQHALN

Turning to `CN(C)C(=O)Cn1cc(-c2nc(C3(c4ccc(-c5cnc(N)nc5)cc4)CC3)no2)cn1` [BI 0153], the residual activity in [1] was 67%; in experiment [2] it was 81%; in [4], 91%; in experiment [5], 62%; in experiment [6] it was 85%; in [7], 100%. Moreover, the residual activity in experiment [8] was 96%; in experiment [9] it was 91%; in [10] it was 89%; in experiment [11], 93%; in experiment [12], 100%; in experiment [13], 82%. In addition, the residual activity was 93% in experiment [14]; 100% in experiment [15]; 85% in [16]; 100% in [17]; 100% in experiment [18]; 100% in experiment [19]. Further, the residual activity in experiment [20] is 90%; in experiment [21], 82%. In addition, the inhibition (usually the drop in the measured response relative to a control, in per cent) in [3] is 36.6%.
As for `CN(C)C(=O)Cn1cc(-c2nc([C@@](C)(c3ccc(-c4cnc(N)nc4)cc3)C3CC3)no2)cn1` [BI 665915], the residual activity in experiment [1] was 94%; in [2] it was 75%; in experiment [4] it was 87%; in experiment [5], 83%; in experiment [6] it was 100%; in experiment [7], 100%. The residual activity in experiment [8] was 100%; in [9] it was 91%; in experiment [10], 86%; in [11] it was 86%; in [12], 74%; in experiment [13], 73%. Further, the residual activity in experiment [14] was 93%; in experiment [15], 79%; in experiment [16] it was 81%; in experiment [17], 96%; in experiment [18], 100%; in experiment [19] it was 85%. Moreover, the residual activity is 65% in experiment [20] and 89% in experiment [21]. For the same compound, in experiment [3], the inhibition is 55.2%.
